Assay [1] concerns the target Muscarinic acetylcholine receptor M5 (Homo sapiens) (UniProt P08912). Conditions: Compound concentration 10.0 uM.
In assay [2] the target is T1, Bromodomain-containing protein 2 (Homo sapiens, UniProt P25440). Briefly: BET mutant TR-FRET assay (BRD2 BD2).
Assay [3] concerns the target Chromatin remodeling regulator CECR2 (Homo sapiens, UniProt Q9BXF3). Briefly: CECR2 DiscoverX BROMOscan.
In assay [4] the target is Muscarinic acetylcholine receptor M4 (Homo sapiens) (UniProt P08173). Conditions: Compound concentration 10.0 uM.
For assay [5], the target named is Peregrin (Homo sapiens, UniProt P55201). Briefly: BRPF1 DiscoverX BROMOscan.
Assay [6] deals with CREB-binding protein (Homo sapiens, UniProt Q92793). Briefly: CREBBP DiscoverX BROMOscan.
CREB-binding protein, sequence (Q92793 whole entry): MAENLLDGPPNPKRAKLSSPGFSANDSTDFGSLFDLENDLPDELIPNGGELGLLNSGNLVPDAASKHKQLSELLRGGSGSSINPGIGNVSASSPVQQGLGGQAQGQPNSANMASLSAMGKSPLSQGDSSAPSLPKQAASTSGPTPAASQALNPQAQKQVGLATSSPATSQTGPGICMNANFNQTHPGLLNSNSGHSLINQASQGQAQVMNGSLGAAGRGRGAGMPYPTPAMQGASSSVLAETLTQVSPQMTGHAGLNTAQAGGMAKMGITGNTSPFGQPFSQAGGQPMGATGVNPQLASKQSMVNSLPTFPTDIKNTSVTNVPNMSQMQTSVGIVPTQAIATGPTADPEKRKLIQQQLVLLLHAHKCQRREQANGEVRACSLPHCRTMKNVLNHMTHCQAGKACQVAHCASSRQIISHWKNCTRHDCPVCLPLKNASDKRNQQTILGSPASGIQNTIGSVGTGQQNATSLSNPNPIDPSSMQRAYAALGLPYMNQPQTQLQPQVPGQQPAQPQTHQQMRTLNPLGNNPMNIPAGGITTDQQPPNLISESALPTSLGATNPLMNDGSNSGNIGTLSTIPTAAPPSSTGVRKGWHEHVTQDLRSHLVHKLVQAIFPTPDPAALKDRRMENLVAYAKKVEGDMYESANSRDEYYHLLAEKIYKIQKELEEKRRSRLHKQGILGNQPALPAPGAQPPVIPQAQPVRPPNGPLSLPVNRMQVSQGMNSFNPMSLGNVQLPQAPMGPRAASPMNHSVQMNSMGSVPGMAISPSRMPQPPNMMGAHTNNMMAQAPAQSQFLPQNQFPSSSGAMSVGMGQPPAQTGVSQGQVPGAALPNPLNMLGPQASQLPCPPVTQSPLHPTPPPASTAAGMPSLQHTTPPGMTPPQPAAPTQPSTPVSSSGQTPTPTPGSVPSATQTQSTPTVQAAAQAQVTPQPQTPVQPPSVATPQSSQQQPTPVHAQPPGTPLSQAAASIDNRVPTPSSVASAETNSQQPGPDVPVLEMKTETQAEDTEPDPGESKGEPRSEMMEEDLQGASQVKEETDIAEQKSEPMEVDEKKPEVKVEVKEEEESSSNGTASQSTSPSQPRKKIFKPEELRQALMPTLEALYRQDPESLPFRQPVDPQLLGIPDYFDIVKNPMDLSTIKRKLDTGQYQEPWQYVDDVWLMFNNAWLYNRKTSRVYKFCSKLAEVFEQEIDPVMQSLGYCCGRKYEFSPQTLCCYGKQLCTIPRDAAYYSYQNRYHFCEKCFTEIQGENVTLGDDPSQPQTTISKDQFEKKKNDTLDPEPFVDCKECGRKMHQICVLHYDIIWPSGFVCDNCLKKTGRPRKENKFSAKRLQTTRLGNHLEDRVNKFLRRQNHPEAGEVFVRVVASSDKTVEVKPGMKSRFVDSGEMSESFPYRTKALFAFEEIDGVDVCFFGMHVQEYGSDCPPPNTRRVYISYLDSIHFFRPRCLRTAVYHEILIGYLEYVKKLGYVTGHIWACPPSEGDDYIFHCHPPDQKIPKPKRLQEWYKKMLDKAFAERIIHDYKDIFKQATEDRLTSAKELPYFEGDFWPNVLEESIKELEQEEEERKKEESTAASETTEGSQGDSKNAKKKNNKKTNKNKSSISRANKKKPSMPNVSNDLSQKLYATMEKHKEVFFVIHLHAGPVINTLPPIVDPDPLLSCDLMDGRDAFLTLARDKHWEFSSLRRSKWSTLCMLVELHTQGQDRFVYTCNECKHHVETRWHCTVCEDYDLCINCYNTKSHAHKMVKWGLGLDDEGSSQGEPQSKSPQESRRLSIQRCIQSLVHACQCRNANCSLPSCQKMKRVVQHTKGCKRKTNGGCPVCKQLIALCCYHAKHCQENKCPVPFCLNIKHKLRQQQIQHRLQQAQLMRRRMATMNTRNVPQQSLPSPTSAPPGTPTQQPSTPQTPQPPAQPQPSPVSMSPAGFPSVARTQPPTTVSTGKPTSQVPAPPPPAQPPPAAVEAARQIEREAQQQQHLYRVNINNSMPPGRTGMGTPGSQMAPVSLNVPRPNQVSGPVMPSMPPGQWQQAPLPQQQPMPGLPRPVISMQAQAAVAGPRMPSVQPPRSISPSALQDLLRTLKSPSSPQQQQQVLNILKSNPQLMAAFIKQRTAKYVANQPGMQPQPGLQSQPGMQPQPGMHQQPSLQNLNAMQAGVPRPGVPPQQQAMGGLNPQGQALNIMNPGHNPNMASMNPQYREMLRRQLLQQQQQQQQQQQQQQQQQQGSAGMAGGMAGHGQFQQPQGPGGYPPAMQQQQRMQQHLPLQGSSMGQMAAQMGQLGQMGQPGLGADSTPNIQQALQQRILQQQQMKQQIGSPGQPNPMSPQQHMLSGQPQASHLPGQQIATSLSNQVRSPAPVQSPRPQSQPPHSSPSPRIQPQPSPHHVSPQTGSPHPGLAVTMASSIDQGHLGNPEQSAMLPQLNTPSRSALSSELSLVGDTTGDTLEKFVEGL
Assay [7] concerns the target T1, Bromodomain-containing protein 2. In words: BET mutant TR-FRET assay (BRD2 BD1). In general terms: In TR-FRET formats the signal depends on donor and acceptor labels being close together.
Assay [8] deals with Beta-3 adrenergic receptor (Homo sapiens) (UniProt P13945). Conditions: Compound concentration 10.0 uM.
In assay [9] the target is D(3) dopamine receptor (Homo sapiens) (UniProt P35462). As to conditions: Compound concentration 10.0 uM.
The target of assay [10] is Alpha-1B adrenergic receptor (Homo sapiens) (UniProt P35368). Conditions: Compound concentration 10.0 uM.
Alpha-1B adrenergic receptor (Homo sapiens), sequence (P35368 whole entry): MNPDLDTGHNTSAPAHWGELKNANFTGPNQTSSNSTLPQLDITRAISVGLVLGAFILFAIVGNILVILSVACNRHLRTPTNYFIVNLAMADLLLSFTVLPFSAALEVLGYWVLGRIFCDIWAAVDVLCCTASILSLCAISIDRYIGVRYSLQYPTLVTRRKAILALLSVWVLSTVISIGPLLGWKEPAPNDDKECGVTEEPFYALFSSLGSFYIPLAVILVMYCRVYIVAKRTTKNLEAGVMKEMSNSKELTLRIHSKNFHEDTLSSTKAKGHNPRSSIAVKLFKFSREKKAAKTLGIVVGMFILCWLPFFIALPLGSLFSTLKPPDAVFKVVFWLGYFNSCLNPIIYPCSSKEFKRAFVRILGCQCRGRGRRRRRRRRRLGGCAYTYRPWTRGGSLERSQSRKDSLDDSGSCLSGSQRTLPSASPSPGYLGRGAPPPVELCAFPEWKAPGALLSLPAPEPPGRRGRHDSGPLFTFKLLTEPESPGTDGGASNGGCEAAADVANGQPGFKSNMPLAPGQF
Assay [11] deals with HL-60. In words: Proliferation assay (HL60 cells). The format is functional, cell-based. As to conditions: Homo sapiens.
Assay [12] addresses D(2) dopamine receptor (Homo sapiens) (UniProt P14416). As to conditions: Compound concentration 10.0 uM.
The target of assay [13] is T2, GABA-A receptor; anion channel (Rattus norvegicus) (UniProt O09028+P15431+P18506+P18508+P19969+P20236+P23574+P23576+P28471+P28473+P30191+P62813+P63079+P63138+Q91ZM7+Q9ES14). Conditions: Compound concentration 10.0 uM.
In assay [14] the target is Bromodomain-containing protein 7 (Homo sapiens, UniProt Q9NPI1). Briefly: BRD7 DiscoverX BROMOscan.
The target of assay [15] is Histamine H3 receptor (Homo sapiens) (UniProt Q9Y5N1). Conditions: Compound concentration 10.0 uM.
For assay [16], the target named is C-C motif chemokine 2 (Homo sapiens, UniProt P13500). Briefly: In vitro inhibition of MCP-1 in Lipopolysaccharide-stimulated human whole blood. The format is tissue-based.
C-C motif chemokine 2, sequence (P13500 whole entry): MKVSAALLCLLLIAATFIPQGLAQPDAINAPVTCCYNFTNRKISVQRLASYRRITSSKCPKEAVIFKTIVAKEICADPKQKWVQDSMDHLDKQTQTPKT
The target in assay [17] is Histamine H1 receptor (Homo sapiens) (UniProt P35367). Conditions: Compound concentration 10.0 uM.
Assay [18] concerns the target T2, GABA-A receptor; anion channel (Rattus norvegicus). As to conditions: Compound concentration 10.0 uM. This is another data set of the same source.
Assay [19] concerns the target D(4) dopamine receptor (Homo sapiens) (UniProt P21917). Conditions: Compound concentration 10.0 uM.
The target of assay [20] is Tumor necrosis factor (Homo sapiens, UniProt P01375). In words: In vitro inhibition of TNFalpha in Lipopolysaccharide-stimulated human whole blood. In kind it is tissue-based.
Tumor necrosis factor, sequence (P01375 whole entry): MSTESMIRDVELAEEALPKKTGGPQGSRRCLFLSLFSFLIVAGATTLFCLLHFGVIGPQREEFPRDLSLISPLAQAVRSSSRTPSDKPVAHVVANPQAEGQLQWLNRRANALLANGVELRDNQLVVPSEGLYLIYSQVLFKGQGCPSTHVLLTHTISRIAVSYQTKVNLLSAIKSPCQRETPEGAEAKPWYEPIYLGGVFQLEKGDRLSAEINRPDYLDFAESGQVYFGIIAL

Each structure is given as a SMILES string. Calls of active or inactive are those of the source. No cut-off for these calls is given here.

In general, inhibition refers to the relative decrease from the control value, in per cent. One may read the pIC50 as −log10 of the IC50, conventionally taken in molar units. Usually Kd stands for the constant that tells how readily two partners part at equilibrium. Read a high Kd as lower affinity. In general, IC50 refers to the concentration that gives 50% inhibition.

T1 sequence (P25440 whole entry, looked up, stated change not applied): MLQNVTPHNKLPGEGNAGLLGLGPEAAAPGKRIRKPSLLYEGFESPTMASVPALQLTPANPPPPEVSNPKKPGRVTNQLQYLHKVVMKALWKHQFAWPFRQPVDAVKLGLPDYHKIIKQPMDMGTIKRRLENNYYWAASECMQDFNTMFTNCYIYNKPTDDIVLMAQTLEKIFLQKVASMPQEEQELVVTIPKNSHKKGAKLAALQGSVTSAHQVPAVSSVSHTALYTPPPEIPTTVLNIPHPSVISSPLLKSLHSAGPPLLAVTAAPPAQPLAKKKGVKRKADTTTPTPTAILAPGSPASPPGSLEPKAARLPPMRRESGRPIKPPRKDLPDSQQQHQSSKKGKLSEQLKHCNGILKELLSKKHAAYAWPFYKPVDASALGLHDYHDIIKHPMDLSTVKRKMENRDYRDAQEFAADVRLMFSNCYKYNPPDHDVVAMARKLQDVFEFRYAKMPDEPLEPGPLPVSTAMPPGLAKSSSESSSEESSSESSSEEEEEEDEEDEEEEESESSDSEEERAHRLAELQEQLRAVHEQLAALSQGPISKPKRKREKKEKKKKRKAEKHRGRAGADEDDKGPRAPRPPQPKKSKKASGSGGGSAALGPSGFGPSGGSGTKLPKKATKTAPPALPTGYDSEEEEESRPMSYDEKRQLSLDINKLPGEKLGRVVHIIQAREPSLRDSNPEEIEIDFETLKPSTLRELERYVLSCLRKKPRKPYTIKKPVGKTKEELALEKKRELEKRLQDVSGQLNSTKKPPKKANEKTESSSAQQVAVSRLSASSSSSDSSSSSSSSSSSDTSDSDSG
Muscarinic acetylcholine receptor M5 (Homo sapiens), sequence (P08912 whole entry): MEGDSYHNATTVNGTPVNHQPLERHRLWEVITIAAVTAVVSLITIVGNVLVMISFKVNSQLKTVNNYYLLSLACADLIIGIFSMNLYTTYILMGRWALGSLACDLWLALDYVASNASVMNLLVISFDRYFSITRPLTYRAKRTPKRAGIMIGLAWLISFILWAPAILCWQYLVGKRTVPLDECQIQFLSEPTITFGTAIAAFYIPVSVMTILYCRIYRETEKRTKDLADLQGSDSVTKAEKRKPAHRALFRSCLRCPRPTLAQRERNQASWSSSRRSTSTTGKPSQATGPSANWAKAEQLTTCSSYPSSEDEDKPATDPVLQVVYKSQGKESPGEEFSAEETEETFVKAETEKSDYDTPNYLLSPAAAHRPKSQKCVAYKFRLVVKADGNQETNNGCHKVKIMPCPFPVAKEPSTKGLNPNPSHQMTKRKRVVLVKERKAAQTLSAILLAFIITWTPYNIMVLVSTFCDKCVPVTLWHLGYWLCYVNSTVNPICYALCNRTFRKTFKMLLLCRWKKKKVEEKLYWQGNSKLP
D(4) dopamine receptor (Homo sapiens), sequence (P21917 whole entry): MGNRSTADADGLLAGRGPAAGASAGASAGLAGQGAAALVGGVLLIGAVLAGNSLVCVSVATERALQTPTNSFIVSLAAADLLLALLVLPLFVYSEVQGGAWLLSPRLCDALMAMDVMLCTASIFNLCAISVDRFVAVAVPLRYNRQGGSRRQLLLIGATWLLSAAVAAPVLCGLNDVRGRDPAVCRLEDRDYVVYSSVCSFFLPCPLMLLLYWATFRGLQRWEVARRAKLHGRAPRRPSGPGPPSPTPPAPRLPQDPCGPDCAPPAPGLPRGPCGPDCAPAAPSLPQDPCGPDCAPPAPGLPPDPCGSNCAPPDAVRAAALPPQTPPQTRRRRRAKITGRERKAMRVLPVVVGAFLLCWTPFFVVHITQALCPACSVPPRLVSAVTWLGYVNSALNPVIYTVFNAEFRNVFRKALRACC

`Cc1cc2c(-c3ccco3)cnc(N[C@@H]3CCN(C)C[C@H]3C(=O)NC3CCCCC3)c2[nH]c1=O` [GSK789]: the inhibition in [1] is 16.3%; in assay [4], 17.1%; in assay [8], 13.8%; in [9] it was 9.01%; in [10], 11.8%; in assay [12], -4.38%. Moreover, the inhibition in assay [13] was 24.7%; in [15], -9.93%; in [17], -0.72%; in [18], 14.8%; in assay [19], 97.9%. For the same compound, the figures for the pIC50 in assay [2] and in assay [7] were 4.7 and 7, respectively. The Kd in [3] was 31.6 µM; in assay [5] it was 31.6 µM; in assay [6] it was 31.6 µM; in assay [14] it was 25.1 µM. Moreover, the IC50 in [11] was 0.39 µM (active); in assay [16], 0.67 µM (active); in assay [20] it was 0.87 µM (active).

Source of the values: ChEMBL document CHEMBL4630905 (2021).
